{"source": "patent US20200268768A1", "about": "“CENICRIVIROC COMBINATION THERAPY FOR THE TREATMENT OF FIBROSIS” (Tobira Therapeutics, Inc., priority 2015, published 2020)", "key": {"[1]": {"system": "STAM mouse model of Non-alcoholic Steatohepatitis", "experiment": "STAM mouse model of NASH, anti-NASH/fibrosis effects at week 9", "assay_type": "in vivo, mice", "description": "NASH was induced in male mice by a single injection of 200 μg streptozotocin 2 days after birth (causing impaired glucose control), followed by a high fat diet from 4 weeks of age. […] Animals were sacrificed at 9 weeks of age, and biochemical, gene expression, and histologic evaluations of the liver were conducted. This in vivo efficacy study was performed to examine the effects of Cenicriviroc in the STAM™ mouse model of Non-alcoholic Steatohepatitis. […] [table]"}, "[2]": {"system": "STAM mouse model of Non-alcoholic Steatohepatitis", "experiment": "STAM mouse model of NASH, anti-HCC effects at week 18", "settings": "for Mice that died (survival analysis): 6 to 18 weeks; for Body weight / CD31-positive area / Liver weight / Liver-to-body weight ratio / Maximum diameter of visible tumor nodules / Number of visible tumor nodules: mean ± SD", "description": "Group 1-Vehicle: Eighteen NASH mice were orally administered vehicle at a volume of 10 mL/kg twice daily (9:00 and 19:00) from 6 weeks of age."}, "[3]": {"system": "HIV-1 infected subjects", "experiment": "Study 202 safety and tolerability", "assay_type": "in vivo, human", "settings": "115 subjects, CVC 100 mg and 200 mg for up to 48 weeks"}, "[4]": {"target": "CCR5 (Homo sapiens, UniProt P51681)", "sequence (P51681 whole entry)": "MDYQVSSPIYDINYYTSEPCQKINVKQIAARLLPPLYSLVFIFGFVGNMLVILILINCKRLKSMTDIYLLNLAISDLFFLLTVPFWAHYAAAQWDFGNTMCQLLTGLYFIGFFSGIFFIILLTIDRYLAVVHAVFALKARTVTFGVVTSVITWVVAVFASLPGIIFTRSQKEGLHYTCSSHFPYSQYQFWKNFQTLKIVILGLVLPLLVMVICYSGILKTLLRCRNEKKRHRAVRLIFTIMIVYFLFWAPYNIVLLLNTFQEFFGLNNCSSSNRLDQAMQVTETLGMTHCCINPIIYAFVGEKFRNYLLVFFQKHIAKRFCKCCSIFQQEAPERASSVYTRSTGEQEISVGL", "experiment": "CCR5 antagonism in in vitro, ex vivo and clinical studies", "settings": "Studies 652-2-201 and 652-2-202", "description": "Clinical evidence of CCR2 and CCR5 antagonism was established by measuring changes from baseline in plasma MCP-1 (a ligand of CCR2) concentrations and changes in plasma HIV-RNA (CCR5 co-receptor required for HIV entry), respectively, in these 2 Phase 2 Studies."}, "[5]": {"settings": "CVC-low 20 mg/kg/day oral, mean ± SD"}, "[6]": {"settings": "CVC-low 20 mg/kg/day oral, mean ± SD, listed as Cenicriviroc"}, "[7]": {"settings": "CVC-high 100 mg/kg/day oral, week 18"}, "[8]": {"settings": "CVC-high 100 mg/kg/day oral, week 18, listed as Cenicriviroc"}, "[9]": {"settings": "CVC-low 20 mg/kg/day oral, week 18"}, "[10]": {"settings": "CVC-low 20 mg/kg/day oral, week 18, listed as Cenicriviroc"}}, "note": "“Also recorded” adds a separate entry of the source."}
{"molecule": "CCCCOCCOc1ccc(-c2ccc3c(c2)C=C(C(=O)Nc2ccc([S@@+]([O-])Cc4cncn4CCC)cc2)CCCN3CC(C)C)cc1", "note": "[CVC, (S)-8-[4-(2-Butoxyethoxy)phenyl]-1-isobutyl-N-(4-{[(1-propyl-1H-imidazol-5-yl)methyl]sulfinyl}phenyl)-1,2,3,4-tetrahydro-1-benzazocine-5-carboxamide]", "values": [{"measurement": "Liver-to-body weight ratio", "setting": "[1]; [5]", "value": "6.9±1.0", "unit": "%"}, {"measurement": "M1/M2 ratio", "setting": "[1]; [5]", "value": "112.3±17.0", "unit": "%"}, {"measurement": "NAFLD Activity Score (NAS)", "setting": "[1]; [5]", "value": "4.0±0.6"}, {"measurement": "Oil red-positive area (fat deposition area)", "setting": "[1]; [5]", "value": "6.51±3.88", "unit": "%"}, {"measurement": "Plasma ALT", "setting": "[1]; [5]", "value": "58±12", "unit": "U/L"}, {"measurement": "Plasma MCP-1", "setting": "[1]; [5]", "value": "68 ± 16", "unit": "pg/mL"}, {"measurement": "TUNEL-positive cells", "setting": "[1]; [5]", "value": "43.3±2.9", "unit": "%"}, {"measurement": "Whole blood glucose", "setting": "[1]; [5]", "value": "585 ± 91", "unit": "mg/dL"}, {"measurement": "Body weight", "setting": "[1]; [6]", "value": "19.5 ± 2.0", "unit": "g"}, {"measurement": "F4/80-positive area (inflammation area)", "setting": "[1]; [6]", "value": "4.77 ± 1.02", "unit": "%"}, {"measurement": "F4/80 and CD206-positive cells", "setting": "[1]; [6]", "value": "34.7 ± 6.3", "unit": "%"}, {"measurement": "F4/80 and CDE 16/32-positive cells", "setting": "[1]; [6]", "value": "38.7 ± 7.6", "unit": "%"}, {"measurement": "Liver hydroxyproline", "setting": "[1]; [6]", "value": "0.63 ± 0.05", "unit": "ug/mg total protein"}, {"measurement": "Liver triglyceride", "setting": "[1]; [6]", "value": "48.5 ± 16.1", "unit": "mg/g liver"}, {"measurement": "Liver weight", "setting": "[1]; [6]", "value": "1334 ± 99", "unit": "mg"}, {"measurement": "Liver-to-body weight ratio", "setting": "[1]; [6]", "value": "6.9 ± 1.0", "unit": "%"}, {"measurement": "M1/M2 ratio", "setting": "[1]; [6]", "value": "112.3 ± 17.0", "unit": "%"}, {"measurement": "NAFLD Activity Score (NAS)", "setting": "[1]; [6]", "value": "4.0 ± 0.6"}, {"measurement": "Oil red-positive area (fat deposition area)", "setting": "[1]; [6]", "value": "6.51 ± 3.88", "unit": "%"}, {"measurement": "Plasma ALT", "setting": "[1]; [6]", "value": "58 ± 12", "unit": "U/L"}, {"measurement": "Plasma MCP-1", "setting": "[1]; [6]", "value": "68 ± 16", "unit": "pg/mL"}, {"measurement": "TUNEL-positive cells", "setting": "[1]; [6]", "value": "43.3 ± 2.9", "unit": "%"}, {"measurement": "Whole blood glucose", "setting": "[1]; [6]", "value": "585 ± 91", "unit": "mg/dL"}, {"measurement": "Sirius red-positive area (fibrosis area)", "setting": "[1]; CVC-low 20 mg/kg/day oral, perivascular space included, mean ± SD, listed as Cenicriviroc", "value": "0.66 ± 0.16", "unit": "%"}, {"measurement": "Modified Sirius red-positive rea", "setting": "[1]; CVC-low 20 mg/kg/day oral, perivascular space subtracted, mean ± SD, listed as Cenicriviroc", "value": "0.29 ± 0.14", "unit": "%"}, {"measurement": "Hepatocyte ballooning score 1, number of mice", "setting": "[1]; CVC-low 20 mg/kg/day, n=6", "value": 3}, {"measurement": "Hepatocyte ballooning score 2, number of mice", "setting": "[1]; CVC-low 20 mg/kg/day, n=6", "value": 3}, {"measurement": "Lobular inflammation score 1, number of mice", "setting": "[1]; CVC-low 20 mg/kg/day, n=6", "value": "3 (>4 foci/200x)"}, {"measurement": "Lobular inflammation score 2, number of mice", "setting": "[1]; CVC-low 20 mg/kg/day, n=6", "value": "3 (>4 foci/200x)"}, {"measurement": "Steatosis score 1, number of mice", "setting": "[1]; CVC-low 20 mg/kg/day, n=6", "value": 6}, {"measurement": "Increase in plasma monocyte chemotactic protein-1 levels", "setting": "[1]; high dose 100 mg/kg/day", "value": 1.5, "unit": "fold"}, {"measurement": "Increase in plasma monocyte chemotactic protein-1 levels", "setting": "[1]; low dose 20 mg/kg/day", "value": 1.1, "unit": "fold"}, {"measurement": "Effect on NASH-derived HCC", "setting": "[2]; CVC treatment groups, week 18", "value": "not observed"}, {"measurement": "Mice that died (survival analysis)", "setting": "[2]; CVC-high 100 mg/kg/day oral", "value": "Five out of twelve"}, {"measurement": "Mice with GS-positive nodules", "setting": "[2]; [7]", "value": "seven out of seven"}, {"measurement": "Mice with HCC lesions (HE staining)", "setting": "[2]; [7]", "value": "six out of seven"}, {"measurement": "Body weight", "setting": "[2]; [7]", "value": "20.8 ± 2.7", "unit": "g"}, {"measurement": "CD31-positive area", "setting": "[2]; [7]", "value": "3.68±1.37", "unit": "%"}, {"measurement": "Liver weight", "setting": "[2]; [7]", "value": "1817 ± 446", "unit": "mg"}, {"measurement": "Liver-to-body weight ratio", "setting": "[2]; [7]", "value": "8.8±2.3", "unit": "%"}, {"measurement": "Maximum diameter of visible tumor nodules", "setting": "[2]; [7]", "value": "5.3±5.1", "unit": "mm"}, {"measurement": "Number of visible tumor nodules", "setting": "[2]; [7]", "value": "3.6±2.5"}, {"measurement": "Body weight", "setting": "[2]; [8]", "value": "20.8 ± 2.7", "unit": "g"}, {"measurement": "CD31-positive area", "setting": "[2]; [8]", "value": "3.68 ± 1.37", "unit": "%"}, {"measurement": "Liver weight", "setting": "[2]; [8]", "value": "1817 ± 446", "unit": "mg"}, {"measurement": "Liver-to-body weight ratio", "setting": "[2]; [8]", "value": "8.8 ± 2.3", "unit": "%"}, {"measurement": "Maximum diameter of visible tumor nodules", "setting": "[2]; [8]", "value": "5.3 ± 5.1", "unit": "mm"}, {"measurement": "Number of visible tumor nodules", "setting": "[2]; [8]", "value": "3.6 ± 2.5"}, {"measurement": "Mice that died (survival analysis)", "setting": "[2]; CVC-low 20 mg/kg/day oral", "value": "Six out of twelve"}, {"measurement": "Mice with GS-positive nodules", "setting": "[2]; [9]", "value": "five out of six"}, {"measurement": "Mice with HCC lesions (HE staining)", "setting": "[2]; [9]", "value": "five out of six"}, {"measurement": "Body weight", "setting": "[2]; [9]", "value": "22.9 ± 3.5", "unit": "g"}, {"measurement": "CD31-positive area", "setting": "[2]; [9]", "value": "1.47±1.10", "unit": "%"}, {"measurement": "Liver weight", "setting": "[2]; [9]", "value": "1837 ± 410", "unit": "mg"}, {"measurement": "Liver-to-body weight ratio", "setting": "[2]; [9]", "value": "8.3±2.8", "unit": "%"}, {"measurement": "Maximum diameter of visible tumor nodules", "setting": "[2]; [9]", "value": "4.8±5.4", "unit": "mm"}, {"measurement": "Number of visible tumor nodules", "setting": "[2]; [9]", "value": "1.5±1.9"}, {"measurement": "Body weight", "setting": "[2]; [10]", "value": "22.9 ± 3.5", "unit": "g"}, {"measurement": "CD31-positive area", "setting": "[2]; [10]", "value": "1.47 ± 1.10", "unit": "%"}, {"measurement": "Liver weight", "setting": "[2]; [10]", "value": "1837 ± 410", "unit": "mg"}, {"measurement": "Liver-to-body weight ratio", "setting": "[2]; [10]", "value": "8.3 ± 2.8", "unit": "%"}, {"measurement": "Maximum diameter of visible tumor nodules", "setting": "[2]; [10]", "value": "4.8 ± 5.4", "unit": "mm"}, {"measurement": "Number of visible tumor nodules", "setting": "[2]; [10]", "value": "1.5 ± 1.9"}, {"measurement": "Tolerability", "setting": "[3]", "value": "generally well tolerated; also recorded: effective and well tolerated"}, {"measurement": "Antagonism of CCR5", "setting": "[4]", "value": "potent and concentration-dependent antagonism"}]}
